Patent US10760110B2, “Antibiotic testing and screening system” (priority 2017, dated 2020)
Values after ≈ are worked out from the molar mass of the structure shown. Where two headings read alike, the source gives them in different places.

Tests used:
[1] = tested on: K. pneumoniae NVT1001 and its ΔompK35/36 and/or ΔramR mutants; experiment: Etest MIC, OmpK35/36 loss and AcrAB-TolC overexpression (ΔramR) strains (Table 6); assay type: cell-based, Klebsiella pneumoniae
Procedure: (§1) The MICs of antibiotics were determined using the Etest (Biodisk AB, Sweden) according to the manufacturer's instructions. The MICs from the Etest, which fall between standard two-fold dilutions, were rounded up to the next highest two-fold value. The MICs of ceftazidime and cefotaxime against K. pneumoniae NVT1001 harbouring the pACYC177 plasmid with blaOXA-48 were further determined using a broth microdilution test according to the recommendations of the CLSI,^25 and the results were interpreted according to the breakpoints established by the CLSI in 2017.^25 Meanwhile, due to the lack of CLSI breakpoints in 2016 and 2017, the results for cephalothin were interpreted according to the breakpoints established by the CLSI in 2015,^26 and the results for moxifloxacin were interpreted according to the breakpoints established by the EUCAST in 2017.^27

[2] = tested on: K. pneumoniae NVT1001 ΔramRΔompK35/36 mutant and its revertants; experiment: Etest MIC, ΔramRΔompK35/36 mutant and its revertants (Table 7); assay type: cell-based; conditions: Klebsiella pneumoniae
From the text: The allelic-exchange method was used to restore the wild-type gene in the K. pneumoniae NVT1001 mutants with constructed chromosome-mediated resistance mechanisms, as described by Tsai et al.^19 Briefly, a DNA fragment of the entire wild-type gene sequence along with flanking regions was amplified from K. pneumoniae NVT1001 using PCR with specific primers. The resulting PCR fragment was digested and then cloned into pUT-KB. For homologous recombination, this plasmid was transformed into E. coli S17-1 λpir^23 via electroporation and mobilized into the K. pneumoniae NVT1001 mutant via conjugation. […] After incubation in 20 mL BHI broth for 6 hours at 37° C. in the absence of kanamycin, the fully grown cultures were spread onto LB agar plates supplemented with 10% sucrose. After the double crossover occurred, the sucrose-resistant and kanamycin-susceptible colonies were selected, and the restoration of the wild-type gene was confirmed via DNA sequencing.
as §1

[3] = ΔramRΔ35/36, ΔramRΔompK35/36 mutant
[4] = Klebsiella pneumoniae, Δ35, ΔompK35 mutant
[5] = Klebsiella pneumoniae, Δ35/36, ΔompK35/36 mutant
[6] = Klebsiella pneumoniae, Δ36, ΔompK36 mutant
[7] = Klebsiella pneumoniae, ΔramR mutant
[8] = Klebsiella pneumoniae, ΔramRΔ35, ΔramRΔompK35 mutant
[9] = Klebsiella pneumoniae, ΔramRΔ35/36, ΔramRΔompK35/36 mutant
[10] = Klebsiella pneumoniae, ΔramRΔ36, ΔramRΔompK36 mutant
[11] = ΔramRΔompK35/36::ompK35/36 revertant
[12] = ΔramRΔompK35/36::ompK35 revertant
[13] = ΔramRΔompK35/36::ompK36 revertant
[14] = ΔramRΔompK35/36::ramR revertant
[15] = ΔramRΔompK35/36::ramR::ompK35/36 revertant
[16] = ΔramRΔompK35/36::ramR::ompK35 revertant
[17] = ΔramRΔompK35/36::ramR::ompK36 revertant
[18] = Klebsiella pneumoniae, WT, NVT1001, read-out: MIC

Molecule	MIC ([1]; WT, NVT1001)	MIC ([1]; Δ35, ΔompK35 mutant)	MIC ([1]; Δ35/36, ΔompK35/36 mutant)	MIC ([1]; Δ36, ΔompK36 mutant)	MIC ([1]; ΔramR mutant)	MIC [1, 4]	MIC [1, 5]	MIC [1, 6]	MIC [1, 7]	MIC [1, 8]	MIC [1, 9]	MIC [1, 10]	MIC [2, 11]	MIC [2, 12]	MIC [2, 13]	MIC [2, 14]	MIC [2, 15]	MIC [2, 16]	MIC [2, 17]	MIC ([2]; ΔramRΔompK35/36 mutant)	also measured
Colistin	1 mg/L	1 mg/L	1 mg/L	1 mg/L	1 mg/L	–	–	–	–	–	–	–	–	–	–	–	–	–	–	–	MIC ([1]; ΔramRΔ35, ΔramRΔompK35 mutant): 1 mg/L; MIC [1, 3]: 1 mg/L; MIC ([1]; ΔramRΔ36, ΔramRΔompK36 mutant): 1 mg/L
Polymyxin B	2 mg/L	2 mg/L	2 mg/L	2 mg/L	1 mg/L	–	–	–	–	–	–	–	–	–	–	–	–	–	–	–	MIC ([1]; ΔramRΔ35, ΔramRΔompK35 mutant): 1 mg/L; MIC [1, 3]: 1 mg/L; MIC ([1]; ΔramRΔ36, ΔramRΔompK36 mutant): 2 mg/L
O=C(N[C@H](CO)[C@H](O)c1ccc([N+](=O)[O-])cc1)C(Cl)Cl [Chloramphenicol]	–	–	–	–	–	8 mg/L (≈ 24.8 µM)	8 mg/L (≈ 24.8 µM)	8 mg/L (≈ 24.8 µM)	128 mg/L (≈ 396 µM)	128 mg/L (≈ 396 µM)	128 mg/L (≈ 396 µM)	128 mg/L (≈ 396 µM)	64 mg/L	128 mg/L	64 mg/L	8 mg/L	4 mg/L	4 mg/L	8 mg/L	128 mg/L	MIC ([1]; Klebsiella pneumoniae, WT, NVT1001): 8 mg/L (≈ 24.8 µM)
C[C@@H]1O[C@@H]1P(=O)(O)O [Fosfomycin]	–	–	–	–	–	128 mg/L (≈ 927 µM)	512 mg/L (≈ 3710 µM)	256 mg/L (≈ 1850 µM)	64 mg/L (≈ 464 µM)	128 mg/L (≈ 927 µM)	> 1020 mg/L	512 mg/L (≈ 3710 µM)	64 mg/L	512 mg/L	128 mg/L	512 mg/L	128 mg/L	256 mg/L	128 mg/L	> 1020 mg/L	MIC [1, 18]: 128 mg/L (≈ 927 µM)
O=C1CN(/N=C/c2ccc([N+](=O)[O-])o2)C(=O)N1 [Nitrofurantoin]	–	–	–	–	–	64 mg/L (≈ 269 µM)	> 512 mg/L	> 512 mg/L	256 mg/L (≈ 1070 µM)	256 mg/L (≈ 1070 µM)	> 512 mg/L	> 512 mg/L	256 mg/L	> 512 mg/L	256 mg/L	> 512 mg/L	64 mg/L	> 512 mg/L	64 mg/L	> 512 mg/L	MIC [1, 18]: 64 mg/L (≈ 269 µM)
